ChEMBL document CHEMBL1287670, “Discovery and synthesis of 6,7,8,9-tetrahydro-5H-pyrimido-[4,5-d]azepines as novel TRPV1 antagonists” (Bioorg Med Chem Lett, 2010)
Converted amounts (≈) assume the structure as drawn. The source made the active and inactive calls. The calls are words filed in the database; no cut-off is given here.

How the values were obtained:
[1] = Aqueous equilibrium solubility of the compound in fasted-state simulated intestinal fluid at pH 6.8 by HPLC; type: physicochemical
[2] = biological target: T1, Transient receptor potential cation channel subfamily V member 1 (Homo sapiens, UniProt Q8NER1); test: Antagonist activity at human recombinant TRPV1 assessed as inhibition of capsaicin-induced in intracellular calcium levels by cell-based FLIPR assay; type: functional
[3] = biological target: Transient receptor potential cation channel subfamily V member 1 (Rattus norvegicus, UniProt O35433); test: Binding affinity to rat TRPV1
[4] = biological target: T1, Transient receptor potential cation channel subfamily V member 1; test: Binding affinity to human recombinant TRPV1
[5] = AUC (infinity) in fasted Sprague-Dawley rat at 5 mg/kg, po; type: ADME, organism-based; design: time infinity, dose 5 mg/kg, route oral; details: plasma
[6] = AUC (infinity) in fasted Sprague-Dawley rat at 1 mg/kg, iv; type: ADME, organism-based; design: time infinity, dose 1 mg/kg, route intravenous; details: plasma
[7] = Half life in fasted Sprague-Dawley rat at 1 mg/kg, iv or 5 mg/kg, po; type: ADME, organism-based; details: in vivo
[8] = Clearance in fasted Sprague-Dawley rat at 1 mg/kg, iv or 5 mg/kg, po; type: ADME, organism-based; details: in vivo
[9] = Cmax in fasted Sprague-Dawley rat at 1 mg/kg, iv or 5 mg/kg, po; type: ADME, organism-based; details: in vivo
[10] = Bioavailability in fasted Sprague-Dawley rat at 1 mg/kg, iv or 5 mg/kg, po; type: ADME, organism-based; details: in vivo
Rattus norvegicus = test: Antihyperalgesic activity against carrageenan-induced thermal hyperalgesia in rat assessed as paw withdrawal latency at 30 mg/kg, po administered 1 hr before carrageenan challenge; type: functional, organism-based; design: dose 30 mg/kg
[11] = Aqueous equilibrium solubility of the compound at pH 2 by HPLC; type: physicochemical; details: aqueous medium
[12] = Volume of distribution at steady state in fasted Sprague-Dawley rat at 1 mg/kg, iv or 5 mg/kg, po; type: ADME, organism-based; details: in vivo, read-out: Vdss

T1 sequence (Q8NER1 whole entry): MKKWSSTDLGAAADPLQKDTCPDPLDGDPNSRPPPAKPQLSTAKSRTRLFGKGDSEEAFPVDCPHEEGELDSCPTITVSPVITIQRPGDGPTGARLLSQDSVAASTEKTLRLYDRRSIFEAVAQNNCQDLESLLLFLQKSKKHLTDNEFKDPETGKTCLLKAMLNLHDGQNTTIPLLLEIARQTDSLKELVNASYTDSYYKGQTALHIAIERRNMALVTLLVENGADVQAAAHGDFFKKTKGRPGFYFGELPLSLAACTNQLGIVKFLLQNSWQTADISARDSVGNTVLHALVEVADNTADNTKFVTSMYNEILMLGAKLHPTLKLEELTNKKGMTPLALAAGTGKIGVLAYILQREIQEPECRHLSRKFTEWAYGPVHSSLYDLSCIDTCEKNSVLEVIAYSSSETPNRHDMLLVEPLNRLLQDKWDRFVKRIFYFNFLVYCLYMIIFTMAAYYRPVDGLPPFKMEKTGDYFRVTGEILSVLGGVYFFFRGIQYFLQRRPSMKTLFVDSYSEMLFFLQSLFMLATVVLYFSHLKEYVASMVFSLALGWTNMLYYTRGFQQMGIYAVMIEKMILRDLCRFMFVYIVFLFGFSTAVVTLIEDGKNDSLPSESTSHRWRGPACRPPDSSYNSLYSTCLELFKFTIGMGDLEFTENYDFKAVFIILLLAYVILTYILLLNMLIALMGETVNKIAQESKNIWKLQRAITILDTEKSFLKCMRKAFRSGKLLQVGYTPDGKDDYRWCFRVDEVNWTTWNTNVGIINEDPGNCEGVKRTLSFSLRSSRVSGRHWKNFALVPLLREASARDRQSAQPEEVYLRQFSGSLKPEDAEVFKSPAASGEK
Sequence of Transient receptor potential cation channel subfamily V member 1 (Rattus norvegicus, UniProt O35433) (O35433 whole entry): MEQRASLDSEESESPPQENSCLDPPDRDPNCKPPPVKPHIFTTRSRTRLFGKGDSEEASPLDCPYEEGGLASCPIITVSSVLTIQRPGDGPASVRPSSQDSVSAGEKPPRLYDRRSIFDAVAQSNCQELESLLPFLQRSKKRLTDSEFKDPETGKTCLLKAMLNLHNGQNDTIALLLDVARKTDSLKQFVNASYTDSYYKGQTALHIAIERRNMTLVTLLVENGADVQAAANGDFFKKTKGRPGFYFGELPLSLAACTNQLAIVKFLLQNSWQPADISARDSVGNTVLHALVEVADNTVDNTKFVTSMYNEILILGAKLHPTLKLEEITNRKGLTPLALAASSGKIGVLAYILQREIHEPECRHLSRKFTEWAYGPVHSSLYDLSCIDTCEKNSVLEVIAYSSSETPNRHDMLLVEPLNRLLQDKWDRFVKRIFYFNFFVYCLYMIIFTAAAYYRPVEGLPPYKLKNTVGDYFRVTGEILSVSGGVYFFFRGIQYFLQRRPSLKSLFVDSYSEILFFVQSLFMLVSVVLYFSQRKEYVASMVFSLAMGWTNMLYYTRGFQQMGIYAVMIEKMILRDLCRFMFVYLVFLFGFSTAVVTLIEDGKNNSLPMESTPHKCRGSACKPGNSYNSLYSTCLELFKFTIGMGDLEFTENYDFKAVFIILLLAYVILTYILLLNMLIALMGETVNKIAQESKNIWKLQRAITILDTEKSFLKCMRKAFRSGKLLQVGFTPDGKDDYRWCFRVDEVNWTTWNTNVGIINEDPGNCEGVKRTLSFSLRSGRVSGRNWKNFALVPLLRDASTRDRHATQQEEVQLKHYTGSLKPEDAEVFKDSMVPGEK

**Q.** What does the source list for O=C(O)c1cnc(N2CCc3nc(N4CCCCC4)nc(Nc4ccc(C(F)(F)F)cc4)c3CC2)c(Cl)c1?
**A.** solubility thermodynamic [1]: 218 µg/mL (≈ 399 µM); IC50 [2]: 462 nM

**Q.** Which IC50 [2] does the source give for COC(=O)c1cnc(N2CCc3nc(N4CCOCC4)nc(Nc4ccc(C(F)(F)F)cc4)c3CC2)c(Cl)c1 here?
**A.** 176 nM

**Q.** With C=C(C)C12C[C@@H](C)[C@@]34O[C@](Cc5ccccc5)(O[C@@H]1[C@@H]3C=C(COC(=O)Cc1ccc(O)c(OC)c1)C[C@]1(O)C(=O)C(C)=C[C@@H]41)O2 (single isomer, unassigned) [RESINIFERATOXIN] as the compound, how does the IC50 [3] read?
**A.** 180 nM

**Q.** And the Ki [4]?
**A.** 14 nM

**Q.** Which results are given for FC(F)(F)c1ccc(Nc2nc(N3CCOCC3)nc3c2CCN(c2ncccc2C(F)(F)F)CC3)cc1?
**A.** AUC(0-inf) [5]: 236 ng·h/mL; solubility thermodynamic [1]: 0.5 µg/mL (≈ 0.929 µM); AUC(0-inf) [6]: 322 ng·h/mL; half-life [7]: 1.1 h; clearance [8]: 51.7 mL/min/kg; Cmax [9]: 160 nM; bioavailability [10]: 14%; Activity (Rattus norvegicus): Active; solubility thermodynamic [11]: 5 µg/mL (≈ 9.29 µM); Vd [12]: 4.7 L/kg

**Q.** For CC(C)(C)c1ccccc1Nc1ncnc2c1CCN(c1ncccc1C(F)(F)F)C2, which IC50 [2] is on record?
**A.** > 20000 nM

**Q.** For Cc1nc2c(c(Nc3ccc(C(C)(C)C)cc3)n1)CCN(c1ncccc1C(F)(F)F)C2, which IC50 [2] is on record?
**A.** 80 nM

**Q.** Which IC50 [2] does the source give for CC(C)(C)c1ccc(Nc2ncnc3c2CN(c2ncccc2C(F)(F)F)CC3)cc1 here?
**A.** > 10000 nM

**Q.** Which IC50 [2] does the source give for CC(C)c1nc2c(c(Nc3ccc(C(C)(C)C)cc3)n1)CCN(c1ncccc1C(F)(F)F)C2 here?
**A.** 18 nM

**Q.** Which IC50 [2] does the source give for COc1nc(Nc2nc(C(C)C)nc3c2CCN(c2ncccc2C(F)(F)F)CC3)ccc1C(F)(F)F here?
**A.** 2460 nM

**Q.** For CC(C)(C)c1ccc(Nc2ncnc3c2CCN(c2ncccc2C(F)(F)F)C3)cc1, which IC50 [2] is on record?
**A.** 9 nM

**Q.** With CC(C)(C)c1ccc(Nc2ncnc3c2CCCN(c2ncccc2C(F)(F)F)C3)cc1 as the compound, how does the IC50 [2] read?
**A.** 2040 nM

**Q.** With FC(F)(F)c1cccc(Nc2ncnc3c2CCN(c2ncccc2C(F)(F)F)C3)c1 as the compound, how does the IC50 [2] read?
**A.** 1450 nM

**Q.** With CC(C)(C)c1cccc(Nc2ncnc3c2CCN(c2ncccc2C(F)(F)F)C3)c1 as the compound, how does the IC50 [2] read?
**A.** 520 nM
